Test results published in patent publication US20090053138A1, “Stabilized Aptamers to Platelet Derived Growth Factor and their Use as Oncology Therapeutics” (priority 2002, published 2009).
Strand notation (5' to 3'): a small letter for the sugar, then the base; units joined by * are phosphorothioate-linked, units joined directly phosphodiester-linked; [ ] holds rarer units or linkages, { } end groups; capitals alone tell only the bases. [HEG] = hexaethylene glycol spacer joining aptamer pieces; [invdT] = inverted (3'-3') thymidine; d = 2'-deoxy (DNA)

Experiments:
PDGF BB [1] = target: T1, PDGF BB (Homo sapiens, UniProt P01127); assay: ERK phosphorylation assay in 3T3 cells; type: cell-based, mouse; parameters: purchased R&D Systems, Minneapolis, Minn; conditions: 10 ng/ml PDGF-BB, 30 minutes
T1 sequence (P01127 82-190 limits assumed): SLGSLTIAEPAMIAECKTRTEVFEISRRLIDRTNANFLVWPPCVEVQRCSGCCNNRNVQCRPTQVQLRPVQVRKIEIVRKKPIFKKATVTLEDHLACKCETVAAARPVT
Procedure: ERK phosphorylation was used to test whether ARC124 (SEQ ID NO:11) retained its functionality after the incorporation of CpG motifs into the aptamer sequence. One hundred and fifty thousand 3T3 cells (a mouse fibroblast cell line which contains PDGF-R) were plated into an appropriate number of wells on a 12 well plate one day prior to the experiment and serum starved in 0.5% FBS overnight. Cells were treated with 10 ng/ml PDGF-BB (R&D Systems, Minneapolis, Minn.) in the presence or absence of CpG-island containing PDGF aptamers for 30 minutes. […] Protein concentration in cell lysates was determined using BIO-RAD protein assay reagent according to manufacturer's recommendations (Bio-Rad, Hercules, Calif.). Lysates were prepared by adding NuPage LDS Sample Buffer 4× with 0.1M DTT to a final concentration of 1× (invitrogen, Carlsbad, Calif.) and incubated at 70° C. for 7 minutes. Forty micrograms of total protein was loaded into each well of a NuPage 10%, Bis-Tris gel (Invitrogen, Carlsbad, Calif.). The gel was run at 100 mAmp for 1 hour. Gel was then transferred to a HyBond ECL nitrocellulose membrane (Amersham, Piscataway, N.J.) at 250 mAmp for 3 hours. After transfer, the nitrocellulose was blocked with 5% BSA (Sigma, St. Louis, Mo.) in PBS for one hour at room temperature. The nitrocellulose membrane was incubated with a p44/42 MAP Kinase antibody overnight at 4° C. […]

PDGF-BB [2] = target: T2, PDGF-BB (Mus musculus, UniProt P31240); assay: Competition binding assay, mouse PDGF-BB
T2 construct: purchased PeproTech, Rocky Hill, N.J
T2 sequence (P31240 82-190 limits assumed): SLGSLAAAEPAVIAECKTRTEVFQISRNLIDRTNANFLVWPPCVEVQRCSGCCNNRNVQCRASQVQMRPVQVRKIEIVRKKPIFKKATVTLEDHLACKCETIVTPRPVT
From the text: (§1) Next, a study was done to determine whether ARC126 cross reacted with PDGF-BB of species other than human. Competition binding assays were set up by dot blot analysis, as previously described, using human, rat, and mouse PDGF-BB (PeproTech, Rocky Hill, N.J.).

PDGF AB = PDGF AB (Homo sapiens, UniProt P01127); assay: Competition binding assay, PDGF-AB; parameters: purchased PeproTech, Rocky Hill, N.J
Chain of PDGF AB (P01127 82-190 limits assumed, other chains not shown): as the sequence (P01127 82-190 limits assumed) above
From the text: as §1
(§2) The competitive binding assay previously described was used to determine the in vitro binding affinity and selectivity of ARC594 for different PDGF isoforms. Different concentrations of unlabeled, competitor aptamer were titrated in separate reactions against a fixed (<0.1 nM) amount of ^32P-radiolabeled ARC594 in buffer containing a fixed amount (0.1 nM) of the aptamer's cognate target (PDGF-BB; PeproTech). UnPEGylated version of ARC594 was radiolabeled at the 5′ terminus by incubation with γ-^32P-ATP (ICN) and polynucleotide kinase (NEB). Binding reactions were carried out in phosphate-buffered saline (Cellgro) containing 0.2 mg/mL bovine serum albumin (NEB) and 0.02 mg/mL tRNA (Sigma). […] The data was expressed as the ratio of the counts per minute (CPM) of radioactivity due to ^32P-ARC594 bound to PDGF BB on the nitrocellulose membrane (CPMnitrocellulose or CPMnc) over the total CPM (CPMtotal=CPMnitrocellulose+CPMnylon).

PDGF BB [3] = target: T1, PDGF BB; assay: Competition binding assay, PDGF-BB; parameters: purchased PeproTech, Rocky Hill, N.J; conditions: human PDGF-BB; read-out: Kd
Procedure: Binding reactions were carried out in phosphate-buffered saline (Cellgro, Herndon, Va.) containing 0.2 mg/mL bovine serum albumin (NEB) and 0.02 mg/mL tRNA (Sigma, St. Louis, Mo.). The reactions were equilibrated for a period of 15-30 minutes at room temperature, then filtered through a sandwich of nitrocellulose (Protran membrane, Perkin-Elmer, Boston, Mass.) and nylon (Hybond membrane, Amersham, Piscataway, N.J.) membranes to separate target bound aptamer from free aptamer.
as §1
as §2, with “(Sigma). The reactions were equilibrated for a period of 15-30 minutes at room temperature, then filtered through a sandwich of nitrocellulose (Protran membrane, Perkin-Elmer) and nylon (Hybond membrane, Amersham) membranes to separate target bound aptamer from free aptamer.” for “(Sigma).”

PDGF-AA = target: T3, PDGF-AA (Homo sapiens, UniProt P04085); assay: Competition binding assay, PDGF-AA
T3 construct: purchased PeproTech, Rocky Hill, N.J
From the text: as §1, §2

PDGF BB [4] = target: T1, PDGF BB; assay: 3T3 cell proliferation assay (PDGF-BB induced); type: cell-based, rat; parameters: purchased PeproTech, Rocky Hill, N.J; conditions: after lyophilization and storage at −20 degrees celsius for 2 years
Procedure: 3T3 cells, a rat fibroblast cell line (ATCC, Manassas, Va.), were plated 3,000 cells/well in a 96 well plate one day prior to the start of the assay in 100 ul DMEM/10% FCS. The following day, cells were washed once with straight DMEM and then 75 ul DMEM/0.8% FCS was added to each well. […] Cells were incubated for 3 days. Following incubation 10 ul MTT (Promega, Madison, Wis.) was added to each well and incubated for an additional 1.5 hours. Media was then removed, 200 ul Isopropanol (2-propanol) was added to each well, cells were re-suspended thoroughly and absorbance at 570 nm was read on a 96 well plate reader.
(§3) 3T3 cells, which are derived from a rat fibroblast cell line (ATCC, Manassas, Va.), were used in a proliferation assay to test potency of modified ARC513 aptamers. 3T3 fibroblast cells have PDGF receptors on their cell-surface and respond to mitogen, e.g., PDGF stimulation by proliferation. The assay was performed as follows: 3T3 cells were plated 3,000 cells/well in a 96 well plate one day prior to the start of the assay in 100 ul DMEM/10% FCS. The following day, cells were washed once with straight DMEM and then 75 ul DMEM/0.8% FCS was added to each well. Then 25 ul of PDGF-BB (PeproTech, Rocky Hill, N.J.) at a 50 ng/ml final concentration was added to each well +/− aptamer condition to be tested. […] The functional PDGF aptamer dilutions usually consisted of 6 points in 2-fold serial dilutions.
(§4) Cells were incubated for 3 days. Following incubation 10 ul MTT (Promega, Madison, Wis.) was added to each well and incubated for an additional 1.5 hours. Media was removed, 200 μl Isopropanol (2-propanol) was added to each well, cells were re-suspended thoroughly and absorbance at 570 nm was read on a 96 well plate reader. The present example depicts the potency comparison of PDGF aptamer ARC: 513 to that of ARC 513 variants.
The 3T3 proliferation assay previously described was used to test potency of all PEG conjugated ARC513 variants described immediately above. The assay was performed as follows: 3T3 cells were plated 3,000 cells/well in a 96 well plate one day prior to the start of the assay in 100 ul DMEM/10% FCS. The following day, cells were washed once with straight DMEM and then 75 ul DMEM/0.8% FCS was added to each well. Then 25 ul of PDGF-BB (PeproTech, Rocky Hill, N.J.) at a 50 ng/ml final concentration was added to each well +/− aptamer condition to be tested. […] The functional PDGF aptamer dilutions usually consisted of 6 points in 2-fold serial dilutions.
as §4, with “ARC513” for “ARC: 513”, “PEGylated ARC513 aptamers.” for “ARC 513 variants.”
as §3, with “3T3” for “3T3 cells, which are derived from a rat fibroblast cell line (ATCC, Manassas, Va.), were used in a proliferation assay to test potency of modified ARC513 aptamers. 3T3”, “100 μl” for “100 ul”
as §4, with “[…]” for “μl”, “reader.” for “reader. The present example depicts the potency comparison of PDGF aptamer ARC: 513 to that of ARC 513 variants.”

PDGF-BB [5] = target: T4, PDGF-BB (Rattus norvegicus, UniProt Q05028); assay: Competition binding assay, rat PDGF-BB
T4 construct: purchased PeproTech, Rocky Hill, N.J
T4 sequence (Q05028 66-174 limits assumed): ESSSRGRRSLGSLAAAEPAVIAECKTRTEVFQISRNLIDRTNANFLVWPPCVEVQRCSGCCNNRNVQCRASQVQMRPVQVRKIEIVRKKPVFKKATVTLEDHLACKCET
From the text: as §1

PDGF BB [6] = target: T1, PDGF BB; assay: Dot-blot binding assay, PDGF BB; conditions: entirely DNA ARC126 used in the multivalent aptamer
Procedure: Binding data for the constituent aptamers and the multivalent aptamers were collected by dot-blot assays in which radio-labeled aptamer is incubated with protein target and then forced through a sandwich of nitrocellulose over nylon and the results shown in FIG. 22. Protein-associated radio-label is captured on the nitrocellulose membrane while the balance of the radio-label is captured on the nylon membrane. The radio-label data is collected on a phosphorimaging plate. […] The multivalent aptamers TK.131.012.A (SEQ ID NO. 9) and TK.131.012.B (SEQ ID NO. 10) were made synthetically.

Substance | phosphorylation of ERK (PDGF BB [1]) | affinity for mouse PDGF-BB (PDGF-BB [2]) | Kd (PDGF-BB [2]; read-out: affinity for mouse PDGF-BB) | Kd (PDGF AB) | Kd (PDGF BB [3]) | binding to PDGF-AA (PDGF-AA) | potency of legacy aptamers vs newly synthesized (PDGF BB [4]) | affinity for rat PDGF-BB (PDGF-BB [5]) | Kd (PDGF-BB [5]; read-out: affinity for rat PDGF-BB) | Kd (PDGF BB [6])
LongCpGARC124: PDGF aptamer ARC124 with CpG motif appended (SEQ ID NO:21) (dG*dT*dG*dA*dA*dC*dG*dT*dT*dC*dG*dA*dG*dCdAdGdGdCdTdAdCdGdGdCdAdCdGdTdAdGdAdGdCdAdTdCdAdCdCdAdTdGdAdTdCdCdT*dG*dC[invdT]; further chemistry not fully specified) | can block phosphorylation of ERK |  |  |  |  |  |  |  |  | 
CpGARC124short: PDGF aptamer ARC124 with CpG motif appended (SEQ ID NO:20) (AACGTTCGAGCAGGCTACGGCACGTAGAGCATCACCATGATCCTGC; synthetic aptamer; (1)..(11) phosphorothiate backbone between nucleotides 1-11; (44)..(46) phosphorothiate backbone between nucleotides 44-46) | can block phosphorylation of ERK |  |  |  |  |  |  |  |  | 
5′-(SEQ ID NO: 1)-HEG-(SEQ ID NO:2)-HEG-(SEQ ID NO:3)-3′-dT-3′ (chain 1 CAGGCUACG; chain 2 CGTAGAGCAUCA; chain 3 TGATCCUG; piece 1: 2'-fluoro at 6, 8, 2'-O-methyl at 9, 3' [HEG], other sugars and backbone not given here; piece 2: 2'-O-methyl at 5, 7, 12, 2'-fluoro at 10, 11, 3' [HEG], other sugars and backbone not given here; piece 3: 2'-fluoro at 5, 6, 7, 2'-O-methyl at 8, 3' [invdT], other sugars and backbone not given here) [ARC126] |  | equal affinity | ~0.1 nM | ~0.1 nM | ~0.1 nM | does not bind | just as potent | equal affinity | ~0.1 nM | ~0.1 nM
